Consider 17 compounds from patent publication US20260078103A1, “ISOQUINOLONES AS PI3K INHIBITORS” (OnKure, Inc., priority 2022, published 2026).

The term IC50 denotes the point on the concentration scale where inhibition reaches its midpoint. The term EC50 denotes the concentration needed to bring the measured effect to its halfway point.

Like-named read-outs stand apart in the source and are kept apart here.

Holding throughout (format): cell-based
Test [1] relates to phosphorylation of AKT (pAKT) in T47D cells expressing mutant PI3Ka (H1047R). In words: In vitro cell pAKT (Ser473) HTRF, T47D cells. Conditions: cellular pAKT, T47D cells, mutant PI3Ka (H1047R), 6 hours, read-out: Avg T-47D IC50. An outline of the steps: (§1)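 pAKT (Ser473) was quantified by HTRF in lysates from cells exposed 6 h at 37 °C to 10-point compound series, with T47D in insulin-supplemented RPMI/10% FBS and SKBR3 in McCoy's 5a/10% FBS. Controls: 0.1% DMSO (high) and 10 uM alpelisib (low). IC50 from sigmoidal curve fitting.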

Test [2] concerns T47D cells expressing mutant PI3Ka (H1047R). Description: In vitro cell proliferation, T47D cells (CellTiter-Glo). Conditions: inhibition of proliferation, read-out: Avg T-47D EC50. The method in brief:
(§2)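 EC50 values derive from a four-parameter logistic fit of luminescence-based (CellTiter-Glo) inhibition, referenced to 0.1% DMSO and 10 uM Alpelisib controls. Compound exposure lasted 72 h at 37 °C.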
On the technique in general: ATP-based viability assays read luminescence as a measure of living cells.

In test [3] the test system is SKBR3 cells express WT PI3Ka. Description: In vitro cell proliferation, SKBR3 cells (CellTiter-Glo). To be noted: inhibition of proliferation. The method in brief:
as §2

In test [4] the test system is phosphorylation of AKT (pAKT) in SKBR3 cells express WT PI3Ka. In words: In vitro cell pAKT (Ser473) HTRF, SKBR3 cells. To be noted: cellular pAKT. An outline of the steps:
as §1
Background: In TR-FRET formats the signal depends on donor and acceptor labels being close together.

On to `Cc1cc(C(C)Nc2ccc(Cl)nc2C(=O)O)c2cc(N3CCC(C)(C)CC3)n(C)c(=O)c2c1` (centres unmarked) [Example 88], for which the IC50 in test [1] (Homo sapiens, T47D, 6 h) was 0.5 to 2 µM; in test [4] (Homo sapiens, SK-BR-3, 6 h), over 15 µM. The EC50 in test [2] (Homo sapiens, T47D, 72 h) was 0.5 to 2 µM; in test [3] (Homo sapiens, SK-BR-3, 72 h), 2 to 15 µM.

Regarding `Cc1cc(C(C)Nc2ccccc2C(=O)O)c2cc(N3Cc4c(F)c(F)c(F)c(F)c4C3)n(C)c(=O)c2c1` (centres unmarked) [Example 89], the half-maximal inhibitory concentration (IC50) in test [1] (Homo sapiens, T47D, 6 h) was 0.5 to 2 µM; in test [4] (Homo sapiens, SK-BR-3, 6 h), over 15 µM. Also, the 50% effective concentration (EC50) is 2 to 15 µM in test [2] (Homo sapiens, T47D, 72 h) and over 15 µM in test [3] (Homo sapiens, SK-BR-3, 72 h).

On to `Cc1cc(C(C)Nc2ccccc2C(=O)O)c2cc(N3CCC4(CCN(CC(F)(F)F)CC4)CC3)n(C)c(=O)c2c1` (centres unmarked) [Example 91], for which the IC50 is 0.001 to 0.5 µM in test [1] and over 15 µM in test [4] (6 hours). The 50% effective concentration (EC50) in test [2] (72 hours) was 0.001 to 0.5 µM; in test [3] (72 hours), 2 to 15 µM.

With `Cc1cc(C(C)Nc2ccccc2C(=O)O)c2cc(N3CCC4(CCN(CC(F)(F)F)C4)CC3)n(C)c(=O)c2c1` (centres unmarked) [Example 94], the IC50 in test [1] (Homo sapiens, T47D, 6 h) lay within 0.001 to 0.5 µM; in test [4] (Homo sapiens, SK-BR-3, 6 h), 2 to 15 µM. For the same compound, the EC50 in test [2] (Homo sapiens, T47D, 72 h) lay in the range of 0.001 to 0.5 µM; in test [3] (Homo sapiens, SK-BR-3, 72 h) it was 2 to 15 µM.

With `COCCC(=O)N1CCN(c2cc3c(C(C)Nc4ccccc4C(=O)O)cc(C)cc3c(=O)n2C)CC1` (centres unmarked) [Example 95], the IC50 in test [1] (Homo sapiens, T47D, 6 h) is 0.5 to 2 µM; in test [4] (Homo sapiens, SK-BR-3, 6 h), over 15 µM. Moreover, the EC50 in test [2] (Homo sapiens, T47D, 72 h) is 0.5 to 2 µM; in test [3] (Homo sapiens, SK-BR-3, 72 h) it was over 15 µM.

For `Cc1cc([C@@H](C)Nc2ccccc2C(=O)O)c2cc(N3CC[C@@]4(CCCN(CC(F)(F)F)C4)C3)n(C)c(=O)c2c1` [Example 98], the 50% inhibitory concentration (IC50) was 0.001 to 0.5 µM in test [1] (Homo sapiens, T47D, 6 h) and over 15 µM in test [4] (Homo sapiens, SK-BR-3, 6 h). The EC50 in test [2] (Homo sapiens, T47D, 72 h) was 0.5 to 2 µM; in test [3] (Homo sapiens, SK-BR-3, 72 h), over 15 µM.

In the case of `Cc1cc([C@@H](C)Nc2ccccc2C(=O)O)c2cc(N3CC[C@]4(CCCN(CC(F)(F)F)C4)C3)n(C)c(=O)c2c1` [Example 99], the 50% inhibitory concentration (IC50) in test [1] (Homo sapiens, T47D, 6 h) is 0.001 to 0.5 µM; in test [4] (Homo sapiens, SK-BR-3, 6 h) it was over 15 µM. In addition, the EC50 in test [2] (Homo sapiens, T47D, 72 h) lay within 0.001 to 0.5 µM; in test [3] (Homo sapiens, SK-BR-3, 72 h), 2 to 15 µM.

On to `Cc1cc(C(C)Nc2ccccc2C(=O)O)c2cc(N3CC4CCCC(C4)C3)n(C)c(=O)c2c1` (centres unmarked) [Example 116], for which the IC50 is 0.5 to 2 µM in test [1] and over 15 µM in test [4] (6 hours). Also, the EC50 in test [2] (72 hours) is 0.5 to 2 µM; in test [3] (72 hours), over 15 µM.

Consider `Cc1cc([C@@H](C)Nc2ccc(Cl)nc2C(=O)O)c2cc(-c3ccc(C)nc3)n(C)c(=O)c2c1` [Example 130], for which the IC50 in test [1] (Homo sapiens, T47D, 6 h) fell in the range of 0.001 to 0.5 µM; in test [4] (Homo sapiens, SK-BR-3, 6 h) it was 2 to 15 µM. Moreover, the EC50 is 0.001 to 0.5 µM in test [2] (Homo sapiens, T47D, 72 h) and 2 to 15 µM in test [3] (Homo sapiens, SK-BR-3, 72 h).

`Cc1cc(C(C)Nc2ccccc2C(=O)O)c2cc(N3CCN4CC(F)(F)C[C@@H]4C3)n(C)c(=O)c2c1` (some centres unmarked) [Example 140]: the 50% inhibitory concentration (IC50) in test [1] (Homo sapiens, T47D, 6 h) was 0.001 to 0.5 µM; in test [4] (Homo sapiens, SK-BR-3, 6 h), over 15 µM. Moreover, the EC50 in test [2] (Homo sapiens, T47D, 72 h) was 0.001 to 0.5 µM; in test [3] (Homo sapiens, SK-BR-3, 72 h), over 15 µM.

With `COc1cccc(N2CCN(c3cc4c([C@@H](C)Nc5ccccc5C(=O)O)cc(C)cc4c(=O)n3C)CC2)c1` [Example 147], the IC50 in test [1] (Homo sapiens, T47D, 6 h) lay in the range of 0.001 to 0.5 µM; in test [4] (Homo sapiens, SK-BR-3, 6 h), 2 to 15 µM. The EC50 is 0.001 to 0.5 µM in test [2] (Homo sapiens, T47D, 72 h) and over 15 µM in test [3] (Homo sapiens, SK-BR-3, 72 h).

`Cc1cc([C@@H](C)Nc2ccc(Cl)nc2C(=O)O)c2cc(N3CCN(C4COC4)CC3)n(C)c(=O)c2c1` [Example 148]: the concentration for half-maximal inhibition (IC50) in test [1] (Homo sapiens, T47D, 6 h) is 0.5 to 2 µM; in test [4] (Homo sapiens, SK-BR-3, 6 h) it was over 15 µM. The EC50 was 0.5 to 2 µM in test [2] (Homo sapiens, T47D, 72 h) and over 15 µM in test [3] (Homo sapiens, SK-BR-3, 72 h).

Take `Cc1cc([C@@H](C)Nc2ccccc2C(=O)O)c2cc(N3CC(c4ccccn4)C3)n(C)c(=O)c2c1` [Example 152]: the IC50 in test [1] (Homo sapiens, T47D, 6 h) was 0.001 to 0.5 µM; in test [4] (Homo sapiens, SK-BR-3, 6 h), over 15 µM. The concentration giving a half-maximal response (EC50) in test [2] (Homo sapiens, T47D, 72 h) is 0.5 to 2 µM; in test [3] (Homo sapiens, SK-BR-3, 72 h), over 15 µM.

With `Cc1cc([C@@H](C)Nc2ccccc2C(=O)O)c2cc(N3CCN(CC4OCCO4)CC3)n(C)c(=O)c2c1` [Example 157], the IC50 in test [1] (Homo sapiens, T47D, 6 h) is 0.001 to 0.5 µM; in test [4] (Homo sapiens, SK-BR-3, 6 h), over 15 µM. Also, the EC50 is 0.001 to 0.5 µM in test [2] (Homo sapiens, T47D, 72 h) and over 15 µM in test [3] (Homo sapiens, SK-BR-3, 72 h).

Regarding `CON1CCN(c2cc3c([C@@H](C)Nc4ccccc4C(=O)O)cc(C)cc3c(=O)n2C)CC1` [Example 158], the half-inhibitory concentration (IC50) in test [1] (Homo sapiens, T47D, 6 h) was 0.001 to 0.5 µM; in test [4] (Homo sapiens, SK-BR-3, 6 h), over 15 µM. Further, the half-maximal effective concentration (EC50) is 0.001 to 0.5 µM in test [2] (Homo sapiens, T47D, 72 h) and over 15 µM in test [3] (Homo sapiens, SK-BR-3, 72 h).

On to `Cc1cc(C(C)Nc2ccccc2C(=O)O)c2cc(C#Cc3cccc(C#N)c3)n(C)c(=O)c2c1` (centres unmarked) [Example 159], for which the 50% inhibitory concentration (IC50) in test [1] was 0.5 to 2 µM; in test [4] (6 hours), over 15 µM. Also, the figures for the EC50 in test [2] (72 hours) and in test [3] (72 hours) were 2 to 15 µM and over 15 µM, respectively.

On to `Cc1cc([C@@H](C)Nc2ccccc2C(=O)O)c2cc(N3CCN(c4cccc(Cl)c4)CC3)n(C)c(=O)c2c1` [Example 160], for which the IC50 was 0.001 to 0.5 µM in test [1] and over 15 µM in test [4] (6 hours). Further, the concentration for a half-maximal effect (EC50) in test [2] (72 hours) was 0.001 to 0.5 µM; in test [3] (72 hours) it was over 15 µM.
